Laboratory results: PMC10801775 (The Journal of Pharmacology and Experimental Therapeutics, 2024)

Tests used:
[1] = parameters: species or system Sprague-Dawley rats; conditions: rat, in vivo
[2] = rat, in vivo

## CCOP(=O)(OCC)Oc1ccc([N+](=O)[O-])cc1 [POX, O,O-diethyl-O-p-nitrophenylphosphate]
[1]
  brain AUC as % of naïve: > 80%
  heart AUC restored, % of naïve AUC level: 25%
  liver AUC increase versus naïve: 4 fold
  lung AUC restored, % of naïve AUC level: 50%
  mean brain region radioactivity higher than naïve rats: up to 2 fold
[2]
  RBC fraction relative to naïve and 60-minute studies: about twice
  RBC fraction, % of total radioactivity: 20%
  metabolite level in blood relative to naïve rats (or rats 60 minutes after POX): 5 fold
  reduction of total percent radioactivity of plasma proteins: ~20%
